Measurements taken from the supplement of paper PMC6965134.
± gives the standard deviation of the averaged measurements.

Experiment: TIMS collisional cross section (CCS, N2) of the lipid ion; higher = larger ion cross section
Conditions: ionization mode: positive, one isomer drawn

| TIMS collisional cross section (sample type: Liver) | TIMS collisional cross section (sample type: HeLa) | TIMS collisional cross section (sample type: plasma) | Structure (SMILES) |
| --- | --- | --- | --- |
| 278 Å² |  |  | CCCCC/C=C\C/C=C\CCCCCCCC(=O)O[C@H](CO/C=C\CCCCCCCCCCCCCCCC)COP(=O)(O)OCCN [PE P- 18:0@_18:2] (ion (formula + adduct): [C41H78NO7P+H] 1+) |
|  | 283.7 ± 0.71 Å² | 282.7 Å² | CCCCC/C=C\C/C=C\C/C=C\CCCCCCC(=O)O[C@H](CO/C=C\CCCCCCCCCCCCCCCC)COP(=O)(O)OCCN [PE P- 18:0@_20:3] (ion (formula + adduct): [C43H80NO7P+H] 1+) |
| 281.6 Å² | 281.6 Å² | 281.6 ± 0.14 Å² | CCCCC/C=C\C/C=C\C/C=C\C/C=C\CCCC(=O)O[C@H](CO/C=C\CCCCCCCCCCCCCCCC)COP(=O)(O)OCCN [PE P- 18:0@_20:4] (ion (formula + adduct): [C43H78NO7P+H] 1+) |
| 285 Å² |  | 284.2 Å² | CC/C=C\C/C=C\C/C=C\C/C=C\C/C=C\C/C=C\CCC(=O)O[C@H](CO/C=C\CCCCCCCCCCCCCCCC)COP(=O)(O)OCCN [PE P- 18:0@_22:6] (ion (formula + adduct): [C45H78NO7P+H] 1+) |
|  |  | 285 Å² | CCCCC/C=C\C/C=C\CCCCCCCC(=O)O[C@H](CO/C=C\CCCCCCCCCCCCCCCCCC)COP(=O)(O)OCCN [PE P- 20:0@_18:2] (ion (formula + adduct): [C43H82NO7P+H] 1+) |
|  | 290.7 Å² |  | CCCCC/C=C\C/C=C\C/C=C\CCCCCCC(=O)O[C@H](CO/C=C\CCCCCCCCCCCCCCCCCC)COP(=O)(O)OCCN [PE P- 20:0@_20:3] (ion (formula + adduct): [C45H84NO7P+H] 1+) |
| 288.7 Å² |  |  | CCCCC/C=C\C/C=C\C/C=C\C/C=C\CCCC(=O)O[C@H](CO/C=C\CCCCCCCCCCCCCCCCCC)COP(=O)(O)OCCN [PE P- 20:0@_20:4] (ion (formula + adduct): [C45H82NO7P+H] 1+) |
|  |  | 308 Å² | CC/C=C\C/C=C\C/C=C\C/C=C\C/C=C\CCCC(=O)OC[C@H](COP(=O)(O)O[C@H]1C(O)C(O)C(O)[C@@H](O)C1O)OC(=O)CCCCCCCCCCCCCCCCC (some centres not stated) [PI 20:5_18:0@] (ion (formula + adduct): [C47H81O13P+H] 1+) |
| 270.3 Å² |  |  | CCCCCCCCCCCCCCC(=O)OC[C@H](COP(=O)(O)OC[C@H](N)C(=O)O)OC(=O)CCCCCCCCCCCCC [PS 15:0_14:0] (ion (formula + adduct): [C35H68NO10P+Na] 1+) |
|  | 282.1 Å² |  | CCCCCC/C=C\CCCCCCCCCC(=O)O[C@H](COC(=O)CCCCCCCCCCCCCCC)COP(=O)(O)OC[C@H](N)C(=O)O [PS 16:0_18:1@] (ion (formula + adduct): [C40H76NO10P+H] 1+) |
|  |  | 279.1 Å² | CCCCCCCCCCC/C=C/[C@@H](O)[C@H](COP(=O)([O-])OCC[N+](C)(C)C)NC(=O)CCCCCCCCCCCCCCC [SM d16:1_16:0@] (ion (formula + adduct): [C37H75N2O6P+H] 1+) |
|  |  | 294.45 ± 0.21 Å² | CCCCCCCC/C=C\CCCCCCCCCCCC(=O)N[C@@H](COP(=O)([O-])OCC[N+](C)(C)C)[C@H](O)/C=C/CCCCCCCCCCC [SM d16:1_22:1@] (ion (formula + adduct): [C43H85N2O6P+H] 1+) |
|  |  | 299.8 Å² | CCCCCCCC/C=C\CCCCCCCCCCCCCC(=O)N[C@@H](COP(=O)([O-])OCC[N+](C)(C)C)[C@H](O)/C=C/CCCCCCCCCCC [SM d16:1_24:1@] (ion (formula + adduct): [C45H89N2O6P+H] 1+) |
|  | 302.1 Å² |  | CCCCCCCC/C=C\CCCCCCCCCCCCCC(=O)N[C@@H](COP(=O)([O-])OCC[N+](C)(C)C)[C@H](O)/C=C/CCCCCCCCCCCC [SM d17:1_24:1@] (ion (formula + adduct): [C46H91N2O6P+H] 1+) |
|  |  | 309.6 Å² | CCCCCCCCCCCCCCCCCCCCCCCC(=O)N[C@@H](COP(=O)([O-])OCC[N+](C)(C)C)[C@H](O)CCCCCCCCCCCCCCC [SM d18:0_24:0@] (ion (formula + adduct): [C47H97N2O6P+H] 1+) |
|  |  | 287.5 Å² | CCCCCCCC/C=C\CCCCCCCC(=O)N[C@@H](COP(=O)([O-])OCC[N+](C)(C)C)[C@H](O)/C=C/CCCCCCCCCCCCC [SM d18:1@_18:1@] (ion (formula + adduct): [C41H81N2O6P+H] 1+) |
|  | 279.1 Å² |  | CCCCCCCCCCCCC/C=C/[C@@H](O)[C@H](COP(=O)([O-])OCC[N+](C)(C)C)NC(=O)CCCCCCCCCCCCC [SM d18:1_14:0@] (ion (formula + adduct): [C37H75N2O6P+H] 1+) |
| 285 Å² | 284.9 Å² | 285.4 Å² | CCCCCCCCCCCCC/C=C/[C@@H](O)[C@H](COP(=O)([O-])OCC[N+](C)(C)C)NC(=O)CCCCCCCCCCCCCCC [SM d18:1_16:0@] (ion (formula + adduct): [C39H79N2O6P+H] 1+) |

| TIMS collisional cross section (sample type: Liver) | TIMS collisional cross section (sample type: HeLa) | TIMS collisional cross section (sample type: plasma) | Structure (SMILES) |
| --- | --- | --- | --- |
|  |  | 297 Å² | CCCCCCCCCCCCC/C=C/[C@@H](O)[C@H](COP(=O)([O-])OCC[N+](C)(C)C)NC(=O)CCCCCCCCCCCCCCCCCCC [SM d18:1_20:0@] (ion (formula + adduct): [C43H87N2O6P+H] 1+) |
| 302.3 Å² |  | 301.9 Å² | CCCCCCCCCCCCC/C=C/[C@@H](O)[C@H](COP(=O)([O-])OCC[N+](C)(C)C)NC(=O)CCCCCCCCCCCCCCCCCCCCC [SM d18:1_22:0@] (ion (formula + adduct): [C45H91N2O6P+H] 1+) |
| 299.3 Å² |  | 299 Å² | CCCCCCCC/C=C\CCCCCCCCCCCC(=O)N[C@@H](COP(=O)([O-])OCC[N+](C)(C)C)[C@H](O)/C=C/CCCCCCCCCCCCC [SM d18:1_22:1@] (ion (formula + adduct): [C45H89N2O6P+H] 1+) |
|  | 308.3 Å² | 308.1 Å² | CCCCCCCCCCCCC/C=C/[C@@H](O)[C@H](COP(=O)([O-])OCC[N+](C)(C)C)NC(=O)CCCCCCCCCCCCCCCCCCCCCCC [SM d18:1_24:0@] (ion (formula + adduct): [C47H95N2O6P+H] 1+) |
| 305.3 Å² | 305.4 ± 0.14 Å² | 305.5 Å² | CCCCCCCC/C=C\CCCCCCCCCCCCCC(=O)N[C@@H](COP(=O)([O-])OCC[N+](C)(C)C)[C@H](O)/C=C/CCCCCCCCCCCCC [SM d18:1_24:1@] (ion (formula + adduct): [C47H93N2O6P+H] 1+) |
|  | 275 Å² |  | CCC/C=C\CCCCCCCC/C=C/[C@@H](O)[C@H](COP(=O)([O-])OCC[N+](C)(C)C)NC(=O)CCCCCCCCCCCCC [SM d18:2_14:0@] (ion (formula + adduct): [C37H73N2O6P+H] 1+) |
|  | 281.4 Å² | 281.3 Å² | CCC/C=C\CCCCCCCC/C=C/[C@@H](O)[C@H](COP(=O)([O-])OCC[N+](C)(C)C)NC(=O)CCCCCCCCCCCCCCC [SM d18:2_16:0@] (ion (formula + adduct): [C39H77N2O6P+H] 1+) |
|  |  | 299.9 Å² | CCC/C=C\CCCCCCCC/C=C/[C@@H](O)[C@H](COP(=O)([O-])OCC[N+](C)(C)C)NC(=O)CCCCCCCCCCCCCCCCCCCCC [SM d18:2_22:0@] (ion (formula + adduct): [C45H89N2O6P+H] 1+) |
| 281.3 ± 0.57 Å² | 283 Å² | 282.9 Å² | CCCCCCCCCCCCCC(=O)OC[C@@H](COC(=O)CCCCCCCCCCC)OC(=O)CCCCCCCCCCC [TG 12:0_12:0_14:0] (ion (formula + adduct): [C41H78O6+NH4] 1+) |
|  |  | 278.9 Å² | CCCC/C=C\CCCCCCCC(=O)OC[C@@H](COC(=O)CCCCCCCCCCC)OC(=O)CCCCCCCCCCC [TG 12:0_12:0_14:1] (ion (formula + adduct): [C41H76O6+NH4] 1+) |
| 280.4 Å² |  |  | CCCCC/C=C\CCCCCCCC(=O)OC[C@@H](COC(=O)CCCCCCCCCCC)OC(=O)CCCCCCCCCCC [TG 12:0_12:0_15:1] (ion (formula + adduct): [C42H78O6+NH4] 1+) |
|  | 288 Å² |  | CCCCCCCCCCCCCCCC(=O)OC[C@@H](COC(=O)CCCCCCCCCCC)OC(=O)CCCCCCCCCCC [TG 12:0_12:0_16:0] (ion (formula + adduct): [C43H82O6+NH4] 1+) |
| 284.2 Å² |  | 284.1 Å² | CCCCCC/C=C\CCCCCCCC(=O)OC[C@@H](COC(=O)CCCCCCCCCCC)OC(=O)CCCCCCCCCCC [TG 12:0_12:0_16:1] (ion (formula + adduct): [C43H80O6+NH4] 1+) |
| 291.3 Å² |  |  | CCCCCCCC/C=C\CCCCCCCC(=O)OC[C@@H](COC(=O)CCCCCCCCCCC)OC(=O)CCCCCCCCCCC [TG 12:0_12:0_18:1] (ion (formula + adduct): [C45H84O6+NH4] 1+) |
| 282.7 Å² |  |  | CCCCCCCCCCCCC(=O)OC[C@@H](COC(=O)CCCCCCCCCCC)OC(=O)CCCCCCCCCCCC [TG 12:0_13:0_13:0] (ion (formula + adduct): [C41H78O6+NH4] 1+) |
| 289.1 Å² | 289 Å² | 289.1 Å² | CCCCCCCCCCCCCC(=O)OC[C@@H](COC(=O)CCCCCCCCCCC)OC(=O)CCCCCCCCCCCCC [TG 12:0_14:0_14:0] (ion (formula + adduct): [C43H82O6+NH4] 1+) |
|  | 291.9 Å² |  | CCCCCCCCCCCCCCC(=O)OC[C@@H](COC(=O)CCCCCCCCCCC)OC(=O)CCCCCCCCCCCCC [TG 12:0_14:0_15:0] (ion (formula + adduct): [C44H84O6+NH4] 1+) |
